Patent US11358952B2, “Substituted 4-aminoisoindoline-1,3-dione compounds, compositions thereof, and methods of treatment therewith” (Celgene Corporation, priority 2018, dated 2022)

These compounds were tested on SU-DHL-4 cell line (assay: SU-DHL-4 cell proliferation assay (Cell Titer-Glo viability)). Conditions: Homo sapiens; cell viability IC50 activity level, DLBCL cell line SU-DHL-4, 120 hours post-treatment; read-out: SU-DHL-4 Act.
Assay type: cell-based
Description: SU-DHL-4 Cell Proliferation Assay.
The following is an example of an assay that can be used to determine the anti-proliferative activity of Isoindolinedione Compounds in a DLBCL cell line, for example, the SU-DHL-4 cell line (Deutsche Sammlung von Mikroorganismen and Zellkulturen GmbH [DSMZ]: catalogue number ACC-495) at 120 hours post-treatment. The seeding density for SU-DHL-4 can be optimized to ensure assay linearity in 1536-well plates.
Increasing concentrations of test compounds (0.5 nM to 10 μM) were spotted in a 20-point dilution fashion (unevenly spaced data points) via an acoustic dispenser (EDC ATS-100) into an empty 1536-well plate. The DMSO concentration was kept constant for a final assay concentration of 0.1% DMSO. Prior to testing, SU-DHL-4 cells were grown in RPMI-1640 (Roswell Park Memorial Institute—1640) medium with 10% FBS (fetal bovine serum: HyClone) and expanded in culture flasks to provide sufficient amounts of starting material. Cells were then diluted to 500 cells per well in a 5 μL volume, and added directly to the compound-spotted 1536-well plates. Cells were allowed to grow for 120 hours in 5% CO2 at 37° C. At the time when exposure of cells to compound began (to), initial viable cell number was assessed via Cell Titer-Glo® Luminescent Cell Viability Assay at a 1 vol:2 vol ratio according to manufacturer's instructions (Promega Corporation, Madison, Wis.) by quantifying the level of luminescence generated by adenosine-5′-triphosphate (ATP) present in viable cells. After 120 hours, cell viability of the treated cells was assessed via Cell Titer-Gb® and read for luminescence. All growth inhibition curves were processed and evaluated using Activity Base (IDBS, Alameda, Calif.). Cell viability IC50 values were calculated using a four parameter logistic model (sigmoidal dose-response model): y=(A+((B−A)/(1+((C/x)^D)))) wherein: A=YMin B=YMax C=EC50 D=Hill slope IC50=the concentration of the compound when Y=50% of DMSO control Y=cell viability measured as luminescence unit, and x=concentration of compound.
`CC1(C)CCC2(CCN(Cc3ccc(CNc4cccc5c4C(=O)N(C4CCC(=O)NC4=O)C5=O)c(F)c3)CC2)O1` (stereo not drawn) [Cpd 145, 4-(4-((2,2-dimethyl-1-oxa-8-azaspiro[4.5]decan-8-yl)methyl)-2-fluorobenzylamino)-2-(2,6-dioxopiperidin-3-yl)isoindoline-1,3-dione] was tested, and the IC50 was under 200 nM. For `Cc1cc(CNc2cccc3c2C(=O)N(C2CCC(=O)NC2=O)C3=O)ccc1CN1CCC2(COC2)C1` (stereo not drawn) [Cpd 229, 4-(4-(2-oxa-6-azaspiro[3.4]octan-6-ylmethyl)-3-methylbenzylamino)-2-(2,6-dioxopiperidin-3-yl)isoindoline-1,3-dione], the IC50 was 501 to 750 nM. Work on `CC(C)COC1CCN(Cc2ccc(CNc3cccc4c3C(=O)N(C3CCC(=O)NC3=O)C4=O)cc2)CC1` (stereo not drawn) [Cpd 125, 2-(2,6-dioxopiperidin-3-yl)-4-(4-((4-isobutoxypiperidin-1-yl)methyl)benzylamino)isoindoilne-1,3-dione] yielded an IC50 of 200 to 500 nM. Compound `NC(=O)c1cc(N2CCN(Cc3ccc(CNc4cccc5c4C(=O)N(C4CCC(=O)NC4=O)C5=O)cc3F)CC2)ccn1` (stereo not drawn) [Cpd 191, 4-(4-(4-((2-(2,6-dioxopiperidin-3-yl)-1,3-dioxoisoindolin-4-ylamino)methyl)-2-fluorobenzyl)piperazin-1-yl)picolinamide] has an IC50 of 501 to 750 nM. `Cc1cc(CNc2cccc3c2C(=O)N(C2CCC(=O)NC2=O)C3=O)ccc1CN1CC2(CCOC2)C1` (stereo not drawn) [Cpd 243, 4-(4-(6-oxa-2-azaspiro[3.4]octan-2-ylmethyl)-3-methylbenzylamino)-2-(2,6-dioxopiperidin-3-yl)isoindoine-1,3-dione] gave an IC50 of under 200 nM. Work on `O=C1CCC(N2C(=O)c3cccc(NCc4ccc(CN5CC(c6cccc(F)c6)C5)cc4)c3C2=O)C(=O)N1` (stereo not drawn) [Cpd 13, 2-(2,6-dioxopiperidin-3-yl)-4-(4-((3-(3-fluorophenyl)azetidin-1-yl)methyl)benzylamino)isoindoline-1,3-dione] yielded an IC50 of 501 to 750 nM. Compound `CC(C)C1CCN(Cc2ccc(CNc3cccc4c3C(=O)N(C3CCC(=O)NC3=O)C4=O)cc2)CC1` (stereo not drawn) [Cpd 5, 2-(2,6-dioxopiperidin-3-yl)-4-(4-((4-isopropylpiperidin-1-yl)methyl)benzylamino)isoindoline-1,3-dione] has an IC50 of under 200 nM. Compound `O=C1CCC(N2C(=O)c3cccc(NCc4ccc(CN5CCN(c6ccc(F)cn6)CC5)cc4)c3C2=O)C(=O)N1` (stereo not drawn) [Cpd 32, 2-(2,6-dioxopiperidin-3-yl)-4-(4-((4-(5-fluoropyridin-2-yl)piperazin-1-yl)methyl)benzylamino)isoindoline-1,3-dione] has an IC50 of 200 to 500 nM. Work on `O=C1CCC(N2C(=O)c3cccc(NCc4ccc(CN5C[C@@H]6CC(c7ccc(F)cc7)=C[C@@H]6C5)cc4)c3C2=O)C(=O)N1` (stereo in doubt) [Cpd 59, 2-(2,6-dioxopiperidin-3-yl)-4-(4-(((3aS,6aR)-5-(4-fluorophenyl)-3,3a,6,6a-tetrahydrocyclopenta[c]pyrrol-2(1H)-yl)methyl)benzylamino)isoindoline-1,3-dione] yielded an IC50 of under 200 nM. With `CC(C)C1CCN(Cc2ccc(CNc3cccc4c3C(=O)N(C3CCC(=O)NC3=O)C4=O)cc2F)CC1` (stereo not drawn) [Cpd 99, 2-(2,6-dioxopiperidin-3-yl)-4-(3-fluoro-4-((4-isopropylpiperidin-1-yl)methyl)benzylamino)isoindoline-1,3-dione] the IC50 was under 200 nM. `CC1(C)COCCN1C1CN(Cc2ccc(CNc3cccc4c3C(=O)N(C3CCC(=O)NC3=O)C4=O)cc2)C1` (stereo not drawn) [Cpd 239, 4-(4-((3-(3,3-dimethylmorpholino)azetidin-1-yl)methyl)benzylamino)-2-(2,6-dioxopiperidin-3-yl)isoindoline-1,3-dione] gave an IC50 of 501 to 750 nM. In the case of `N#Cc1ccc(OC2CN(Cc3ccc(CNc4cccc5c4C(=O)N(C4CCC(=O)NC4=O)C5=O)cc3)C2)cc1` (stereo not drawn) [Cpd 74, 4-(1-(4-((2-(2,6-dioxopiperidin-3-yl)-1,3-dioxoisoindolin-4-ylamino)methyl)benzyl)azetidin-3-yloxy)benzonitrile], the IC50 is reported as 501 to 750 nM. Compound `N#Cc1cccc(C2CN(Cc3ccc(CNc4cccc5c4C(=O)N(C4CCC(=O)NC4=O)C5=O)c(F)c3)C2)c1` (stereo not drawn) [Cpd 121, 3-(1-(4-((2-(2,6-dioxopiperidin-3-yl)-1,3-dioxoisoindolin-4-ylamino)methyl)-3-fluorobenzyl)azetidin-3-yl)benzonitrile] has an IC50 of under 200 nM. `O=C1CC[C@@H](N2C(=O)c3cccc(NCc4ccc(CN5CC(N6CCOCC6)C5)cc4F)c3C2=O)C(=O)N1` [Cpd 209, (R)-2-(2,6-dioxopiperidin-3-yl)-4-(2-fluoro-4-((3-morpholinoazetidin-1-yl)methyl)benzylamino)isoindoline-1,3-dione] showed an IC50 of under 200 nM. `NC(=O)c1cc(N2CCN(Cc3ccc(CNc4cccc5c4C(=O)N(C4CCC(=O)NC4=O)C5=O)c(F)c3)CC2)ccn1` (stereo not drawn) [Cpd 192, 4-(4-(4-((2-(2,6-dioxopiperidin-3-yl)-1,3-dioxoisoindolin-4-ylamino)methyl)-3-fluorobenzyl)piperazin-1-yl)picolinamide] was tested, and the IC50 was under 200 nM. For `Cc1cc(C#N)ccc1N1CCN(Cc2ccc(CNc3cccc4c3C(=O)N(C3CCC(=O)NC3=O)C4=O)cc2)[C@H](C)C1` (stereo partly drawn) [Cpd 67, 4-((3R)-4-(4-((2-(2,6-dioxopiperidin-3-yl)-1,3-dioxoisoindolin-4-ylamino)methyl)benzyl)-3-methylpiperazin-1-yl)-3-methylbenzonitrile], the IC50 was under 200 nM. `Cc1cc(CNc2cccc3c2C(=O)N(C2CCC(=O)NC2=O)C3=O)ccc1CN1CC(n2cccn2)C1` (stereo not drawn) [Cpd 77, 4-(4-((3-(1H-pyrazol-1-yl)azetidin-1-yl)methyl)-3-methylbenzylamino)-2-(2,6-dioxopiperidin-3-yl)isoindoline-1,3-dione] showed an IC50 of 200 to 500 nM. `O=C1CCC(N2C(=O)c3cccc(NCc4ccc(CN5CCN(c6ccc(C(F)(F)F)cn6)CC5)cc4)c3C2=O)C(=O)N1` (stereo not drawn) [Cpd 119, 2-(2,6-dioxopiperidin-3-yl)-4-(4-((4-(5-(trifluoromethyl)pyridin-2-yl)piperazin-1-yl)methyl)benzylamino)isoindoline-1,3-dione] was tested, and the IC50 was 200 to 500 nM. `Cc1cc(CNc2cccc3c2C(=O)N(C2CCC(=O)NC2=O)C3=O)ccc1CN1CC(C(C)C)C1` (stereo not drawn) [Cpd 202, 2-(2,6-dioxopiperidin-3-yl)-4-(4-((3-isopropylazetidin-1-yl)methyl)-3-methylbenzylamino)isoindoline-1,3-dione] was tested, and the IC50 was under 200 nM. With `CCc1nnc(N2CCN(Cc3ccc(CNc4cccc5c4C(=O)N(C4CCC(=O)NC4=O)C5=O)cc3)CC2)o1` (stereo not drawn) [Cpd 198, 2-(2,6-dioxopiperidin-3-yl)-4-(4-((4-(5-ethyl-1,3,4-oxadiazol-2-yl)piperazin-1-yl)methyl)benzylamino)isoindoline-1,3-dione] the IC50 was 751 to 1000 nM. In the case of `O=C1CCC(N2C(=O)c3cccc(NCc4ccc(CN5CCC6(CC5)CC6)cc4)c3C2=O)C(=O)N1` (stereo not drawn) [Cpd 21, 4-(4-(6-azaspiro[2.5]octan-6-ylmethyl)benzylamino)-2-(2,6-dioxopiperidin-3-yl)isoindoline-1,3-dione], the IC50 is reported as 501 to 750 nM. `CCS(=O)(=O)N1CCN(Cc2ccc(CNc3cccc4c3C(=O)N(C3CCC(=O)NC3=O)C4=O)cc2)CC1` (stereo not drawn) [Cpd 133, 2-(2,6-dioxopiperidin-3-yl)-4-(4-((4-(ethylsulfonyl)piperazin-1-yl)methyl)benzylamino)isoindoline-1,3-dione] showed an IC50 of 200 to 500 nM. `Cc1cc(CNc2cccc3c2C(=O)N(C2CCC(=O)NC2=O)C3=O)ccc1CN1CCN(c2cccnc2C(N)=O)CC1` (stereo not drawn) [Cpd 179, 3-(4-(4-((2-(2,6-dioxopiperidin-3-yl)-1,3-dioxoisoindolin-4-ylamino)methyl)-2-methylbenzyl)piperazin-1-yl)picolinamide] was tested, and the IC50 was 751 to 1000 nM. `O=C1CCC(N2C(=O)c3cccc(NCc4ccc(CN5CC6(CC6)C5)cc4F)c3C2=O)C(=O)N1` (stereo not drawn) [Cpd 135, 4-(4-(5-azaspiro[2.3]hexan-5-ylmethyl)-2-fluorobenzylamino)-2-(2,6-dioxopiperidin-3-yl)isoindoline-1,3-dione] was tested, and the IC50 was 200 to 500 nM. Compound `Cc1cc(CNc2cccc3c2C(=O)N(C2CCC(=O)NC2=O)C3=O)ccc1CN1CCC(C(F)(F)F)CC1` (stereo not drawn) [Cpd 45, 2-(2,6-dioxopiperidin-3-yl)-4-(3-methyl-4-((4-(trifluoromethyl)piperidin-1-yl)methyl)benzylamino)isoindoline-1,3-dione] has an IC50 of under 200 nM. Compound `O=C1CCC(N2C(=O)c3cccc(NCc4ccc(CN5CCC(N6CCCS6(=O)=O)CC5)cc4F)c3C2=O)C(=O)N1` (stereo not drawn) [Cpd 172, 4-((4-((4-(1,1-dioxidoisothiazolidin-2-yl)piperidin-1-yl)methyl)-2-fluorobenzyl)amino)-2-(2,6-dioxopiperidin-3-yl)isoindoline-1,3-dione] has an IC50 of under 200 nM. For `CC(C)(C)N1CCN(Cc2ccc(CNc3cccc4c3C(=O)N(C3CCC(=O)NC3=O)C4=O)cc2F)CC1` (stereo not drawn) [Cpd 93, 4-(4-((4-tert-butylpiperazin-1-yl)methyl)-3-fluorobenzylamino)-2-(2,6-dioxopiperidin-3-yl)isoindoline-1,3-dione], the IC50 was under 200 nM.
